Measurements as given in US20070135398A1, “Process for the preparation of ciclesonide” (priority 2005, published 2007).

Tests used:
[1] = Decomposition in ethanol-water mixture; assay type: physicochemical; conditions: 20 mg in 6 mL ethanol and 4 mL purified water, 80° C., 64 hours
Method: The HPLC analysis was carried out using the following equipment and methodology. The column was a Prodigy ODS, 220×4.6 mm, 5 μm. The eluent was ethanol/water 50/50 at a flow rate of 2 mL/min. The detector was an UV-DAD at 242 nm.
Decomposition in Ethanol-Water Mixture
20 mg ciclesonide were dissolved in 6 mL ethanol and 4 mL purified water and the solution was kept at 80° C. for 64 hours.

[2] = ester prodrug; Current Opinion in Investigational Drugs 2002, 3(1) 78-83; cited from earlier work

formation of the corresponding 21-hydroxy analogue [1]: 3.99%
purity after storage in ethanol/water solution ([1]; initial purity 99.74%): 95.34%
Compound: CC(C)C(=O)OCC(=O)[C@@]12O[C@H](C3CCCCC3)O[C@@H]1C[C@H]1[C@@H]3CCC4=CC(=O)C=C[C@]4(C)[C@H]3[C@@H](O)C[C@@]12C [ciclesonide, pregna-1,4-diene-3,20-dione, 16,17-[[(R)-cyclohexylmethylene]bis(oxy)]-11-hydroxy-21-(2-methyl-1-oxopropoxy)-(11β,16α)-(9CI)]
oral bioavailability [2]: essentially devoid of oral bioavailability
